# How the values were obtained:
# [1] = system: DNA synthesis in HEK293T cells; test: EdU/BrdU dual-pulse DNA-replication efficiency assay; type: cell-based, human; settings: wt-Ube2V2 cells, post T-REX
# Description: 4.8×10^5 cells were plated in glass-bottomed dishes (In Vitro Scientific) and allowed to grow for 24 h. Cells were transfected with the indicated plasmid and allowed to grow for another 24 h. Cells were then treated with 3 μM Ht-PreHNE no alkyne for 2.5 h followed by two rinses with serum-free medium. After this time, 20 μM EdU (final concentration) was added into cell culture media for 30 min before the 3rd rinse. The cells were rinsed another two times before light shining. 2.5 h post light irradiation, cells were treated with 50 μM BrdU for 30 min at 37° C. Then the cells were fixed with −20° C. pre-chilled MeOH for 20 min and then carried on to immunofluorescence assay as described elsewhere.
# Whether DNA-synthesis stall (that occurs in response to many DNA damage events) accompanies C69-specific Ube2V2-HNEylation was investigated. A dual-pulse assay was used, which involves sequential, timed pulsing with two orthogonal DNA-labeling agents (EdU, followed by BrdU) that can be detected by fluorescence imaging (FIG. 13D). This assay is very accurate, because DNA-synthesis is measured over a defined time range, allowing a good estimate of synthesis-rate to be determined.
# [2] = system: HaloTag-fused proteins of interest (POI); test: T-REX targeting efficiency by Click coupling, in-gel fluorescence; type: cell-based; settings: equation of Step 40A (ix)
# Description: (i) For mammalian cells, add 15 μL freshly prepared lysis buffer (50 mM Hepes pH 7.6, 0.3 mM TCEP and 1% Nonidet p-40) to mammalian cell pellets from Step 2A above and subject to 3 cycles of freeze-thaw. For E. coli cells, resuspend cell pellet in 100 μL lysis buffer consisting of 50 mM HEPES pH 7.6, 2 mM TCEP, 1% Nonidet p-40, 150 μg/mL Lysozyme, 5 μg/mL DNAse-I. Incubate for 20 min at room temperature with agitation. For mammalian cells make sure the cells are resuspended well in lysis buffer.
# (iv) Dilute a portion of the clarified lysate to 1 mg/mL in a final volume of ˜25 μL containing 50 mM Hepes pH 7.6, 0.3 mM TCEP, and 0.2 mg/mL His6-TEV-S219V. Incubate at 37° C. for 45 min. The optimal concentration of lysate protein is ˜1.0 mg/mL. High concentration of lysate protein causes failure of Click coupling. Precipitates may appear upon adding His6-TEV-S219V. […]
# (vii) Upon completion of the gel-electrophoresis, rinse the gel with ddH2O 20 mL (×2, 5 min) and analyze for Cy5 signal using a ChemiDoc-MP imaging system (Bio-Rad) (see Equipment Setup). Any alternative fluorescence gel imager platforms can be used in this step. […]
# (x) Bio-Rad Image Lab™ software is used to quantitate the intensities of Cy5 signal and western blot signal. […] Click on “Analysis table” to generate the quantitated signal intensities corresponding to selected bands. […]
# PTEN = molecular target: T1, PTEN (Homo sapiens, UniProt P60484); test: Immunofluorescence of endogenous PIP3 after PTEN-targeted T-REX; type: cell-based; settings: T-REX HNEylation of Halo-PTEN
# T1 construct: host or cells: HEK-293
# T1 sequence (P60484 whole entry): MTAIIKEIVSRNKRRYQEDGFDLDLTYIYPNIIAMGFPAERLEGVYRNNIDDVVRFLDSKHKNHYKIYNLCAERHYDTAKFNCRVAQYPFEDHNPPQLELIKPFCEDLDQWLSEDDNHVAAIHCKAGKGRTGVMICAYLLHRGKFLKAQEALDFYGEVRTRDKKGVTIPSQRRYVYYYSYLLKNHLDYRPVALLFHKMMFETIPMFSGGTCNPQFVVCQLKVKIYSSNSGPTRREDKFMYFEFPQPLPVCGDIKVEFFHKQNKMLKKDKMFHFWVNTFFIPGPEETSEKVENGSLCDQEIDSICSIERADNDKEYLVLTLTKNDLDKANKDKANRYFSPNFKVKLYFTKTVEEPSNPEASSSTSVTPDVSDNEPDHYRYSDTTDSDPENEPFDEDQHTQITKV
# Description: (i) Transient transfection using TransIT-2020. Split HEK-293 cells in four 35 mm glass-bottom dishes. For each dish, seeding ˜4×10^5 cells in 2.0 mL total cell culture medium should result in cells that are ˜40-50% confluent after 24 h, which represents optimal cell density. Too low and too high cell density may result in excessive cell death or poor transfection efficiency respectively. Higher cell density is also not optimal for imaging.
# (ii) Transfect each plate with 2000 ng of Halo-PTEN plasmid. Transfect with TransIT-2020 following the manufacturer's protocol.
# (iv) Treatment of cells with T-REX™ delivery photocaged precursor, photo-uncaging and cell fixing (TIMING: 8 hours). Treat the cells with photocaged precursor as described in Section 2, Step 39A.
# (v) After shining light on the sample, incubate the plates at 37° C. for 10 hours. […]
# (xviii) Images were analyzed using ImageJ software (NIH). Briefly, the average green fluorescence intensity (intensity of signal due to PIP3) for each cell was determined by drawing a free hand circle around the image. This was repeated for each condition such that 50-100 cells were analyzed each time from multiple different frames. A global average of the green fluorescence intensity was calculated for each condition, then these values were plotted and analyzed using prism. […]
structure (smiles),measurement,setting,value
"CCCCCC(O)/C=C/C=O (stereo not drawn) [HNE, 4-hydroxynonenal]",DNA-synthesis stall,[1],the extent of DNA-synthesis stall was similar to that observed under mitomycin-C treatment
same,targeting efficiency,[2],10-40%
same,endogenous PIP3 level,PTEN,upregulation of PIP3

# From patent US11506670B2, “Method of genome-wide direct identification of electrophile-sensing targets” (Cornell University, priority 2018, dated 2022)
